Tests used:
Format in all cases: cell-based
[1] = tested on: KRAS-G12D mutant tumor cells AGS; assay: Cell Proliferation Inhibition Assay (AGS), Cell-titer GLO, 96 h; conditions: Homo sapiens, AGS, 96 h, AGS cells, 96 h incubation, Cell-titer GLO; read-out: AGS(G12D)
In short: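 AGS cells (KRAS-G12D) grown in low-attachment plates were exposed to compound for 96 h at 37°C. Viability was read by CellTiter-Glo luminescence and converted to % inhibition against max and blank wells. IC50 came from curve fitting.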

[2] = tested on: KRAS-G12V mutant tumor cells SW620; assay: Cell Proliferation Inhibition Assay (SW620), Cell-titer GLO, 96 h; conditions: Homo sapiens, SW-620, 96 h, SW620 cells, 96 h incubation, Cell-titer GLO; read-out: SW620(G12V)
In short: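 SW620 cells (1×10^3/well, low-attachment) were exposed to compound from 10000 to 0.03 nM (0.5% DMSO) for 96 h at 37°C. Viability was read by Cell-titer GLO luminescence. Inhibition was calculated relative to DMSO and blank wells, and IC50 obtained by curve fitting.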

KRAS G12D-cRAF = target: T1, KRAS G12D-cRAF (Homo sapiens, UniProt P01116, G12D); assay: Cellular KRAS G12D-cRAF Binding Inhibition Assay (NanoBRET, AD293 stable cells); conditions: 3 h incubation, read-out: NanoBRET KRAS G12D
T1 construct: expressed in transfected cells
In short: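 AD293 cells stably expressing KRAS G12D-NanoLuc and cRAF RBD-HaloTag were seeded at 1×10^4 cells/well with NanoBRET 618 ligand overnight. BRET signal was converted to % inhibition of binding relative to max and blank wells, and IC50 came from curve fitting.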

KRAS G12V-cRAF = target: T2, KRAS G12V-cRAF (Homo sapiens, UniProt P01116, G12V); assay: Cellular KRAS G12V-cRAF Binding Inhibition Assay (NanoBRET, AD293 stable cells); conditions: 3 h incubation, read-out: NanoBRET KRAS G12V
T2 construct: expressed in transfected cells
In short: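 Live AD293 stable cells, NanoLuc donor with HaloTag NanoBRET 618 ligand acceptor added overnight. Inhibition percent from luminescence relative to max signal and medium blank; IC50 from curve fitting.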

T1 sequence (P01116 1-188 isoform P01116-2 G12D): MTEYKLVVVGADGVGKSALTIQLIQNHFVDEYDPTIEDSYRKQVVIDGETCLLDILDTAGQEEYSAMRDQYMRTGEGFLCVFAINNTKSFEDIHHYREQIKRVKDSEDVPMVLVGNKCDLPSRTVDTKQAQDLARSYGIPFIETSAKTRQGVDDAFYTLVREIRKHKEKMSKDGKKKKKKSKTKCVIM
T2 sequence (P01116 1-188 isoform P01116-2 G12V): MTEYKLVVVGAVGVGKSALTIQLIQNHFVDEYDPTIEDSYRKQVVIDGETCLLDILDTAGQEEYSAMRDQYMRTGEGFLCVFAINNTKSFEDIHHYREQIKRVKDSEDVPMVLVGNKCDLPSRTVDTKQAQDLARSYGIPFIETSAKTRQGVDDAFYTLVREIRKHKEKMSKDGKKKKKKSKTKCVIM

IC50 [1] [nM] | IC50 [2] [nM] | IC50 (KRAS G12D-cRAF) [nM] | IC50 (KRAS G12V-cRAF) [nM] | SMILES
4.67 | 1.45 | 8.38 | 18 | CCN1CCN(c2cnc3c(c2)-c2c4c5cc(ccc5n2CCCOC3C)-c2csc(n2)CC(NC(=O)C23COC(C)(C2)C3)C(=O)N2CCCC(N2)C(=O)OCC(C)(C)C4)CC1 [Example 124, (1S,4r)-N-((1^5S,6^3S,4S,Z)-1^2-(4-ethylpiperazin-1-yl)-1^5,10,10-trimethyl-5,7-dioxo-1^8,1^9,6^1,6^2,6^3, 6^4,6^5,6^6-octahydro-1^5H,1^7H-8-oxa-1(13,15)-pyrido[3',2':7,8][1,5]oxazonino[5,6-a]indola-2(4,2)-thiazola-6(1,3)-pyridazinacycloundecaphane-4-yl)-1-methyl-2-oxabicyclo[2.1.1]hexane-4-carbox amide]
3.6 | 0.54 | 7.1 | 23.9 | COC1CCN(c2cnc3c(c2)-c2c4c5cc(ccc5n2CCCOC3C)-c2csc(n2)CC(NC(=O)C2CC2C(F)F)C(=O)N2CCCC(N2)C(=O)OCC(C)(C)C4)CC1 [Example 113, (1S,2S)-2-(difluoromethyl)-N-((1^5S,6^3S,4S,Z)-1^2-(4-methoxypiperidin-1-yl)-1^5,10,10-trimethyl-5,7-dioxo-1^8,1^9,6^1,6^2,6^3,6^4,6^5,6^6-octahydro-1^5H, 1^7H-8-oxa-1(13,15)-pyrido[3',2':7,8][1,5]oxazonino[5,6-alindola-2(4,2)-thiazola-6(1,3)-pyridazinacycloundecaphane-4-yl)cyclopropane-1-carbox amide]
0.86 | 0.21 | 1.8 | 8.1 | CC1OCCCn2c(c3c4cc(ccc42)-c2csc(n2)CC(NC(=O)C2CC2C(F)F)C(=O)N2CCCC(N2)C(=O)OCC(C)(C)C3)-c2cc(N3CCCC(N(C)C)C3)cnc21 [Example 117, (1S,2S)-2-(difluoromethyl)-N-((1^5S,6^3S,4S,Z)-1^2-(3-(dimethylamino)piperidin-1-yl)-1^5,10,10-trimethyl-5,7-dioxo-1^8,1^9,6^1,6^2,6^3,6^4,6^5,6^6-octahydro-1^5H,1^7H-8-oxa-1(13,15)-pyrido[3',2':7,8][1,5]oxazonino[5,6-a]indola-2(4,2)-thiazola-6(1,3)-pyridazinacycloundecaphane-4-yl)cyclopropane-1-carboxamide]
0.19 | 0.05 | 0.76 | 3.8 | CC1OCCCn2c(c3c4cc(ccc42)-c2csc(n2)CC(NC(=O)C2C(C)C2C)C(=O)N2CCCC(N2)C(=O)OCC(C)(C)C3)-c2cc(N3CC(C)N(C)C(C)C3)cnc21 [Example 165, (1r,2R,3S)-2,3-dimethyl-N-((1^5S,6^3S,4S,Z)-1^5,10,10-trimethyl-5,7-dioxo-1^2-((3S,5R)-3,4,5-trimethylpiperazin-1-yl)-1^8,1^9,6^1,6^2,6^3,6^4,6^5,6^6-octahydro-1^5H,1^7H-8-oxa-1(13,15)-pyrido[3',2':7,8][1, 5]oxazonino[5,6-a]indola-2(4,2)-thiazola-6(1,3)-pyridazinacycloundecaphane-4-yl)cyclopropane-1-carboxamide]
1.8 | 0.85 | 3.4 | 16.3 | CC1CN(c2cnc3c(c2)-c2c4c5cc(ccc5n2CCCOC3C)-c2csc(n2)CC(NC(=O)C2CC2C(F)F)C(=O)N2CCCC(N2)C(=O)OCC(C)(C)C4)CCO1 [Example 130, (1S,2S)-2-(difluoromethyl)-N-((1^5S,6^3S,4S,Z)-1^5,10,10-trimethyl-1^2-((R)-2-methylmorpholino)-5,7-dioxo-1^8,1^9,6^1,6^2,6^3,6^4,6^5,6^6-octahydro-1^5H,^7H-8-oxa-1(13,15)-pyrido[3',2':7,8][1,5]oxazonino[5,6-a]indola-2(4,2)-thiazola-6(1,3)-pyridazinacycloundecaphane-4-yl)cyclopropane-1-carbox amide]
1.51 | 0.21 | 2.7 | 10.3 | [2H]C([2H])([2H])N1CCN(c2cnc3c(c2)-c2c4c5cc(ccc5n2CCCOC3C)-c2csc(n2)CC(NC(=O)C2CC2C(F)F)C(=O)N2CCCC(N2)C(=O)OCC(C)(C)C4)CC1 [Example 91, (1S,2S)-2-(difluoromethyl)-N-((1^5S,6^3S,4S,Z)-1^5,10,10-trimethyl-1^2-(4-(methyl-d3)piperazin-1-yl)-5,7-dioxo-1^8,1^9,6^1,6^2,6^3,6^4,6^5,6^6-octahydro-1^5H,1^7H-8-oxa-1(13,15)-pyrido[3',2':7,8][1,5]oxazonino[5,6-a]indola-2(4,2)-thiazola-6(1,3)-pyridazinacycloundecaphane-4-yl)cyclopropane-1-carb oxamide]
0.03 | 0.01 | 0.3 | 2 | CCN1CCN(c2cnc3c(c2)-c2c4c5cc(ccc5n2CCCOC3C)-c2coc(n2)CC(NC(=O)C2C(C)C2C)C(=O)N2NC(C(=O)OCC(C)(C)C4)C3CC2C3)CC1 [Example 197, (1r,2R,3S)-N-((1^5S,6^4S,4S,Z)-1^2-(4-ethylpiperazin-1-yl)-1^5,10,10-trimethyl-5,7-dioxo-1^8,1^9-dihydro-1^5H,1^7H-8-oxa-6^2,6^3-diaza-1(13,15)-pyrido[3',2':7,8][1,5]oxazonino[5,6-a]indola-2(4,2)-oxazola-6(2,4)-bicyclo[3.1.1]heptanacycloundecaphane-4-yl)-2,3-dimethylcyclopropane-1-carboxamide]
0.71 | 0.24 | 0.92 | 4.52 | CCN1CCN(c2cnc3c(c2)-c2c4c5cc(ccc5n2CC(C)COC3C)-c2csc(n2)CC(NC(=O)C2CC2C(F)F)C(=O)N2CCCC(N2)C(=O)OCC(C)(C)C4)CC1 [Example 161, (1S,2S)-2-(difluoromethyl)-N-((1^5S,1^8R,6^3S,4S,Z)-1^2-(4-ethylpiperazin-1-yl)-1^5,1^8,10,10-tetramethyl-5,7-dioxo-1^8,1^9,6^1,6^2,6^3,6^4,6^5,6^6-octahydro-1^5H,1^7H-8-oxa-1(13,15)-pyrido[3',2':7,8][1,5]oxazonino[5,6-a]indola-2(4,2)-thiazola-6(1,3)-pyridazinacycloundecaphane-4-yl)cyclopropane-1-c arboxamide]
2.4 | 1.07 | 5.99 | 19.8 | CC1OCCCn2c(c3c4cc(ccc42)-c2csc(n2)CC(NC(=O)C2CC2C(F)F)C(=O)N2CCCC(N2)C(=O)OCC(C)(C)C3)-c2cc(-c3ccc(N4CCN(C)CC4)cc3)cnc21 [Example 96, (1S,2S)-2-(difluoromethyl)-N-((1^5S,6^3S,4S,Z)-1^5,10,10-trimethyl-1^2-(4-(4-methylpiperazin-1-yl)phenyl)-5,7-dioxo-1^8,1^9,6^1,6^2,6^3,6^4,6^5,6^6-octahydro-15H,17H-8-oxa-1(13,15)-pyrido[3',2':7,8][1, 5]oxazonino[5,6-a]indola-2(4,2)-thiazola-6(1,3)-pyridazinacycloundecaphane-4-yl)cyclopropane-1-carboxamide]
33.7 | 8.17 | 22.1 | 86.4 | CC1OCCCn2c(c3c4cc(ccc42)-c2csc(n2)CC(NC(=O)C24CC(C)(C2)C4)C(=O)N2CCCC(N2)C(=O)OCC(C)(C)C3)-c2cc(N3CCN(CC(F)(F)F)CC3)cnc21 [Example 39, 3-methyl-N-((1^5S,6^3S,4S,Z)-1^5,10,10-trimethyl-5,7-dioxo-1^2-(4-(2,2,2-trifluoroethyl)piperazin-1-yl)-1^8,1^9,6^1,6^2,6^3,6^4,6^5,6^6-octahydro-1^5H,1^7H-8-oxa-1(13,15)-pyrido[3',2':7,8][1,5]oxazonino[5,6-a]indola-2(4,2)-thiazola-6(1,3)-pyridazinacycloundecaphane-4-yl)bicyclo[1.1.1]pentane-1-carbo xamide]
1.28 | 0.29 | 2.5 | 11.4 | CC1CN(c2cnc3c(c2)-c2c4c5cc(ccc5n2CCCOC3C)-c2csc(n2)CC(NC(=O)C2CC2C(F)F)C(=O)N2CCCC(N2)C(=O)OCC(C)(C)C4)CC(C)O1 [Example 128, (1S,2S)-2-(difluoromethyl)-N-((1^5S,6^3S,4S,Z)-1^2-((2S,6R)-2,6-dimethylmorpholino)-1^5,0,10-trimethyl-5,7-dioxo-1^8,1^9,6^1,6^2,6^3,6^4,6^5,6^6-octahydro-1^5H,1^7H-8-oxa-1(13,15)-pyrido[3',2':7,8][1,5]oxazonino[5,6-a]indola-2(4,2)-thiazola-6(1,3)-pyridazinacycloundecaphane-4-yl)cyclopropane-1-carboxamide]
0.79 | 0.11 | 3.14 | 9.6 | CC1OCCCn2c(c3c4cc(ccc42)-c2csc(n2)CC(NC(=O)C2CC2C(F)F)C(=O)N2CCCC(N2)C(=O)OCC(C)(C)C3)-c2cc(N3CCN(C)CC3)cnc21 [Example 81, (1S,2S)-2-(difluoromethyl)-N-((1^5S,6^3S,4S,Z)-1^5,10,10-trimethyl-1^2-(4-methylpiperazin-1-yl)-5,7-dioxo-1^8,1^9,6^1,6^2,6^3,6^4,6^5,6^6-octahydro-1^5H,1^7H-8-oxa-1(13,15)-pyrido[3',2':7,8][1,5]oxazonino[5,6-a]indola-2(4,2)-thiazola-6(1,3)-pyridazinacycloundecaphane-4-yl)cyclopropane-1-carboxamide]

Source: patent publication EP4800018A1, “PAN-KRAS INHIBITOR AND USE THEREOF IN MEDICINES” (Betta Pharmaceuticals Co., Ltd., priority 2023, dated 2025)
